According to BindingDB's records for doi:10.1074/jbc.M112.443390 (The Ohio State University, 2013):
pIC50: −log10 of the molar value.

Columns and labels:
[1] = molecular target: T1, Gag-Pol polyprotein (Human immunodeficiency virus type 1 group M subtype B (isolate NY5), UniProt P12497); assay: 3'-Processing Assay
Source text: (§1) A recently reported time-resolved fluorescence assay [J. Biol. Chem. 287: 21189-21203] was used to quantify IN 3'-processing and strand transfer activities.

[2] = molecular target: T2, Gag-Pol polyprotein [A1275T] (Human immunodeficiency virus type 1 group M subtype B (isolate NY5), UniProt P12497, A1275T); assay: 3'-Processing Assay
Source text: as §1

[3] = molecular target: T1, Gag-Pol polyprotein; assay: Strand Trasnfer Assay
Source text: as §1

[4] = molecular target: T2, Gag-Pol polyprotein [A1275T]; assay: Strand Trasnfer Assay
Source text: as §1

Compound: Cc1nc2ccc(Br)cc2c(-c2ccc(Cl)cc2)c1C(OC(C)(C)C)C(=O)O (stereo not drawn) [ALLINI-2]
- pIC50 [1]: 6.74
- pIC50 [2]: 3.70
- pIC50 [3]: 6.77
- pIC50 [4]: 6.05

Compound: CO[C@H](C(=O)O)c1c(C)nc2ccc(Br)cc2c1-c1ccc(Cl)cc1
- pIC50 [1]: 6.04
- pIC50 [2]: 3.58
- pIC50 [3]: 6.40
- pIC50 [4]: 5.34
